Source: patent US9469650B2, “Melampomagnolide B derivatives” (BOARD OF TRUSTEES OF THE UNIVERSITY OF ARKANSAS, priority 2013, dated 2016)

Experiments:
[1] = test system: MOLT-4; experiment: panel of 60 human tumor cell lines, growth inhibition (Leukemia)
[2] = test system: SR; experiment: as above
[3] = test system: LOX IMVI; experiment: panel of 60 human tumor cell lines, growth inhibition (Melanoma)
[4] = test system: M14; experiment: as above
[5] = test system: SK-MEL-28; experiment: as above
[6] = test system: SF-268; experiment: panel of 60 human tumor cell lines, growth inhibition (CNS Cancer)
[7] = test system: SNB-19; experiment: as above
[8] = test system: SNB-75; experiment: as above
[9] = test system: HCC-2998; experiment: panel of 60 human tumor cell lines, growth inhibition (Colon Cancer); details: for Percent Growth: HCC-2998
[10] = test system: SW-620; experiment: as above; details: for GI50: SW-620, SW-620; for Percent Growth: SW-620
[11] = test system: ACHN; experiment: panel of 60 human tumor cell lines, growth inhibition (Renal Cancer)
[12] = test system: CAKI-1; experiment: as above
[13] = test system: UO-31; experiment: as above
[14] = test system: HS 578T; experiment: panel of 60 human tumor cell lines, growth inhibition (Breast Cancer); details: for Percent Growth: HS 578T
[15] = test system: T-47D; experiment: as above; details: for Percent Growth: T-47D
[16] = test system: NCI-H226; experiment: panel of 60 human tumor cell lines, growth inhibition (Non-Small Cell Lung Cancer)

Q: What does the source list for C=C1C(=O)O[C@H]2[C@H]1CC/C(COC(=O)NCCc1ccccn1)=C\CC[C@@]1(C)O[C@@H]21 [JVM 61, ((1aR,7aS,10aS,10bS,E)-1a-methyl-8-methylene-9-oxo-1a,2,3,6,7,7a,8,9,10a,10b-decahydrooxireno[2′,3′:9,10]cyclodeca[1,2-b]furan-5-yl)methyl-(2-(pyridin-2-yl)ethyl)carbamate]?
A: GI50 ([1]; Homo sapiens, MOLT-4): 5.54 µM; CC50 ([1]; Homo sapiens, MOLT-4, read-out: LC50): > 100 µM; IC (TGI) ([1]; Homo sapiens, MOLT-4, read-out: TGI): 25 µM; Percent Growth ([1]; MOLT-4, Log10 Concentration −4.0): −47%; Percent Growth ([1]; MOLT-4, Log10 Concentration −5.0): 31%; Percent Growth ([1]; MOLT-4, Log10 Concentration −6.0): 105%; Percent Growth ([1]; MOLT-4, Log10 Concentration −7.0): 106%; Percent Growth ([1]; MOLT-4, Log10 Concentration −8.0): 106%; GI50 ([2]; Homo sapiens): 4.1 µM; CC50 ([2]; Homo sapiens, read-out: LC50): > 100 µM; IC (TGI) ([2]; Homo sapiens, read-out: TGI): 24.6 µM; Percent Growth ([2]; Log10 Concentration −4.0): −34%; Percent Growth ([2]; Log10 Concentration −5.0): 22%; Percent Growth ([2]; Log10 Concentration −6.0): 95%; Percent Growth ([2]; Log10 Concentration −7.0): 100%; Percent Growth ([2]; Log10 Concentration −8.0): 99%; GI50 ([3]; Homo sapiens): 4.96 µM; GI50 ([3]; Homo sapiens, 5-dose assay): 4.96 µM; CC50 ([3]; Homo sapiens, read-out: LC50): 58.2 µM; IC (TGI) ([3]; Homo sapiens, read-out: TGI): 19.4 µM; Percent Growth ([3]; Log10 Concentration −4.0): −75%; Percent Growth ([3]; Log10 Concentration −5.0): 30%; Percent Growth ([3]; Log10 Concentration −6.0): 96%; Percent Growth ([3]; Log10 Concentration −7.0): 102%; Percent Growth ([3]; Log10 Concentration −8.0): 99%; GI50 ([4]; Homo sapiens, M14): 5.58 µM; CC50 ([4]; Homo sapiens, M14, read-out: LC50): 66.7 µM; IC (TGI) ([4]; Homo sapiens, M14, read-out: TGI): 21.6 µM; Percent Growth ([4]; M14, Log10 Concentration −4.0): −68%; Percent Growth ([4]; M14, Log10 Concentration −5.0): 34%; Percent Growth ([4]; M14, Log10 Concentration −6.0): 97%; Percent Growth ([4]; M14, Log10 Concentration −7.0): 102%; Percent Growth ([4]; M14, Log10 Concentration −8.0): 100%; GI50 ([5]; Homo sapiens, SK-MEL-28): 5.25 µM; CC50 ([5]; Homo sapiens, SK-MEL-28, read-out: LC50): 45.5 µM; IC (TGI) ([5]; Homo sapiens, SK-MEL-28, read-out: TGI): 18.1 µM; Percent Growth ([5]; SK-MEL-28, Log10 Concentration −4.0): −93%; Percent Growth ([5]; SK-MEL-28, Log10 Concentration −5.0): 32%; Percent Growth ([5]; SK-MEL-28, Log10 Concentration −6.0): 96%; Percent Growth ([5]; SK-MEL-28, Log10 Concentration −7.0): 96%; Percent Growth ([5]; SK-MEL-28, Log10 Concentration −8.0): 104%; GI50 ([6]; Homo sapiens, SF-268): 16.2 µM; CC50 ([6]; Homo sapiens, SF-268, read-out: LC50): 71.7 µM; IC (TGI) ([6]; Homo sapiens, SF-268, read-out: TGI): 34 µM; Percent Growth ([6]; SF-268, Log10 Concentration −4.0): −72%; Percent Growth ([6]; SF-268, Log10 Concentration −5.0): 82%; Percent Growth ([6]; SF-268, Log10 Concentration −6.0): 102%; Percent Growth ([6]; SF-268, Log10 Concentration −7.0): 109%; Percent Growth ([6]; SF-268, Log10 Concentration −8.0): 106%; GI50 ([7]; Homo sapiens, SNB-19): 27.7 µM; CC50 ([7]; Homo sapiens, SNB-19, read-out: LC50): > 100 µM; IC (TGI) ([7]; Homo sapiens, SNB-19, read-out: TGI): 160 µM; Percent Growth ([7]; SNB-19, Log10 Concentration −4.0): 3%; Percent Growth ([7]; SNB-19, Log10 Concentration −5.0): 88%; Percent Growth ([7]; SNB-19, Log10 Concentration −6.0): 94%; Percent Growth ([7]; SNB-19, Log10 Concentration −7.0): 93%; Percent Growth ([7]; SNB-19, Log10 Concentration −8.0): 97%; GI50 ([8]; Homo sapiens, SNB-75): 3.78 µM; CC50 ([8]; Homo sapiens, SNB-75, read-out: LC50): 48.4 µM; IC (TGI) ([8]; Homo sapiens, SNB-75, read-out: TGI): 18.6 µM; Percent Growth ([8]; SNB-75, Log10 Concentration −4.0): −88%; Percent Growth ([8]; SNB-75, Log10 Concentration −5.0): 32%; Percent Growth ([8]; SNB-75, Log10 Concentration −6.0): 74%; Percent Growth ([8]; SNB-75, Log10 Concentration −7.0): 76%; Percent Growth ([8]; SNB-75, Log10 Concentration −8.0): 81%; Percent Growth ([9]; Log10 Concentration −4.0): −86%; Percent Growth ([9]; Log10 Concentration −5.0): 87%; Percent Growth ([9]; Log10 Concentration −6.0): 100%; Percent Growth ([9]; Log10 Concentration −7.0): 103%; Percent Growth ([9]; Log10 Concentration −8.0): 101%; GI50 ([9]; Homo sapiens, HCC 2998): 16.3 µM; CC50 ([9]; Homo sapiens, HCC 2998, read-out: LC50): 62.1 µM; IC (TGI) ([9]; Homo sapiens, HCC 2998, read-out: TGI): 31.8 µM; GI50 ([10]; Homo sapiens): 3.13 µM; GI50 ([10]; Homo sapiens, 5-dose assay): 3.13 µM; CC50 ([10]; Homo sapiens, SW-620, read-out: LC50): 54.5 µM; IC (TGI) ([10]; Homo sapiens, SW-620, read-out: TGI): 12.3 µM; Percent Growth ([10]; Log10 Concentration −4.0): −70%; Percent Growth ([10]; Log10 Concentration −5.0): 7%; Percent Growth ([10]; Log10 Concentration −6.0): 92%; Percent Growth ([10]; Log10 Concentration −7.0): 105%; Percent Growth ([10]; Log10 Concentration −8.0): 109%; GI50 ([11]; Homo sapiens): 2.75 µM; CC50 ([11]; Homo sapiens, read-out: LC50): 34.5 µM; IC (TGI) ([11]; Homo sapiens, read-out: TGI): 11.3 µM; Percent Growth ([11]; Log10 Concentration −4.0): −98%; Percent Growth ([11]; Log10 Concentration −5.0): 5%; Percent Growth ([11]; Log10 Concentration −6.0): 85%; Percent Growth ([11]; Log10 Concentration −7.0): 97%; Percent Growth ([11]; Log10 Concentration −8.0): 102%; Percent Growth ([12]; CAKI-1, Log10 Concentration −4.0): −83%; Percent Growth ([12]; CAKI-1, Log10 Concentration −5.0): 6%; Percent Growth ([12]; CAKI-1, Log10 Concentration −6.0): 88%; Percent Growth ([12]; CAKI-1, Log10 Concentration −7.0): 93%; Percent Growth ([12]; CAKI-1, Log10 Concentration −8.0): 99%; GI50 ([12]; Homo sapiens, CAKI-1): 2.88 µM; CC50 ([12]; Homo sapiens, CAKI-1, read-out: LC50): 42.8 µM; IC (TGI) ([12]; Homo sapiens, CAKI-1, read-out: TGI): 11.7 µM; GI50 ([13]; Homo sapiens, UO-31): 6.38 µM; CC50 ([13]; Homo sapiens, UO-31, read-out: LC50): 51.3 µM; IC (TGI) ([13]; Homo sapiens, UO-31, read-out: TGI): 20.8 µM; Percent Growth ([13]; UO-31, Log10 Concentration −4.0): −87%; Percent Growth ([13]; UO-31, Log10 Concentration −5.0): 40%; Percent Growth ([13]; UO-31, Log10 Concentration −6.0): 89%; Percent Growth ([13]; UO-31, Log10 Concentration −7.0): 93%; Percent Growth ([13]; UO-31, Log10 Concentration −8.0): 93%; Percent Growth ([14]; Log10 Concentration −4.0): −25%; Percent Growth ([14]; Log10 Concentration −5.0): 28%; Percent Growth ([14]; Log10 Concentration −6.0): 94%; Percent Growth ([14]; Log10 Concentration −7.0): 96%; Percent Growth ([14]; Log10 Concentration −8.0): 98%; GI50 ([14]; Homo sapiens, Hs-578T): 4.66 µM; CC50 ([14]; Homo sapiens, Hs-578T, read-out: LC50): ≥ 100 µM; IC (TGI) ([14]; Homo sapiens, Hs-578T, read-out: TGI): 33.9 µM; GI50 ([15]; Homo sapiens, T47D): 6.19 µM; CC50 ([15]; Homo sapiens, T47D, read-out: LC50): > 100 µM; IC (TGI) ([15]; Homo sapiens, T47D, read-out: TGI): 25 µM; Percent Growth ([15]; Log10 Concentration −4.0): −43%; Percent Growth ([15]; Log10 Concentration −5.0): 35%; Percent Growth ([15]; Log10 Concentration −6.0): 106%; Percent Growth ([15]; Log10 Concentration −7.0): 104%; Percent Growth ([15]; Log10 Concentration −8.0): 98%; GI50 ([16]; Homo sapiens, NCI-H226): 14.1 µM; CC50 ([16]; Homo sapiens, NCI-H226, read-out: LC50): 81.3 µM; IC (TGI) ([16]; Homo sapiens, NCI-H226, read-out: TGI): 33.8 µM; Percent Growth ([16]; NCI-H226, Log10 Concentration −4.0): −62%; Percent Growth ([16]; NCI-H226, Log10 Concentration −5.0): 70%; Percent Growth ([16]; NCI-H226, Log10 Concentration −6.0): 91%; Percent Growth ([16]; NCI-H226, Log10 Concentration −7.0): 92%; Percent Growth ([16]; NCI-H226, Log10 Concentration −8.0): 94%
